Laboratory results taken from PubChem BioAssay (NCI).
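Cultured in 96-well plates, cells were exposed to test compound for 48 hours across five concentrations. GI50 = concentration required for 50% inhibition of growth. TGI denotes the concentration required for complete inhibition of growth.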

Legend:
Assay in all cases: NCI anticancer screen, dose series, 48 h; in the data active means GI50 below about 0.43 µM; inactive means the rest
786-0 renal = test system: 786-0 renal
A498 renal = test system: A498 renal
A549 NSCLC = test system: A549 NSCLC
ACHN renal = test system: ACHN renal
BT-549 breast = test system: BT-549 breast
CAKI-1 renal = test system: CAKI-1 renal
CCRF-CEM leukemia = test system: CCRF-CEM leukemia
COLO 205 colon = test system: COLO 205 colon
DU-145 prostate = test system: DU-145 prostate
EKVX NSCLC = test system: EKVX NSCLC
HCC-2998 colon = test system: HCC-2998 colon
HCT-116 colon = test system: HCT-116 colon
HCT-15 colon = test system: HCT-15 colon
HL-60(TB) leukemia = test system: HL-60(TB) leukemia
HOP-62 NSCLC = test system: HOP-62 NSCLC
HOP-92 NSCLC = test system: HOP-92 NSCLC
HS 578T breast = test system: HS 578T breast
HT29 colon = test system: HT29 colon
IGROV1 ovarian = test system: IGROV1 ovarian
K-562 leukemia = test system: K-562 leukemia
KM12 colon = test system: KM12 colon
LOX IMVI melanoma = test system: LOX IMVI melanoma
M14 melanoma = test system: M14 melanoma
MALME-3M melanoma = test system: MALME-3M melanoma
MCF7 breast = test system: MCF7 breast
MDA-MB-231 breast = test system: MDA-MB-231 breast
MDA-MB-435 = test system: MDA-MB-435
MOLT-4 leukemia = test system: MOLT-4 leukemia
NCI-H226 lung = test system: NCI-H226 lung
NCI-H23 lung = test system: NCI-H23 lung
NCI-H460 lung = test system: NCI-H460 lung
NCI-H522 lung = test system: NCI-H522 lung
NCI/ADR-RES ovarian = test system: NCI/ADR-RES ovarian
OVCAR-3 ovarian = test system: OVCAR-3 ovarian
OVCAR-4 ovarian = test system: OVCAR-4 ovarian
OVCAR-5 ovarian = test system: OVCAR-5 ovarian
OVCAR-8 ovarian = test system: OVCAR-8 ovarian
PC-3 prostate = test system: PC-3 prostate
RXF 393 renal = test system: RXF 393 renal
SF-268 CNS = test system: SF-268 CNS
SF-295 CNS = test system: SF-295 CNS
SF-539 CNS = test system: SF-539 CNS
SK-MEL-2 melanoma = test system: SK-MEL-2 melanoma
SK-MEL-28 melanoma = test system: SK-MEL-28 melanoma
SK-MEL-5 melanoma = test system: SK-MEL-5 melanoma
SK-OV-3 ovarian = test system: SK-OV-3 ovarian
SNB-19 CNS = test system: SNB-19 CNS
SNB-75 CNS = test system: SNB-75 CNS
SR leukemia = test system: SR leukemia
SW-620 colon = test system: SW-620 colon
T-47D breast = test system: T-47D breast
TK-10 renal = test system: TK-10 renal
U251 CNS = test system: U251 CNS
UACC-257 melanoma = test system: UACC-257 melanoma
UACC-62 melanoma = test system: UACC-62 melanoma
UO-31 renal = test system: UO-31 renal

O=c1c2c3c(sc2nc(N/N=C/c2ccc(Br)cc2)n1Cc1ccccc1)CCCC3
inactive: GI50 (786-0 renal) 3.07 µM | GI50 (A498 renal) > 100 µM | GI50 (A549 NSCLC) 46.2 µM | GI50 (ACHN renal) > 100 µM | GI50 (BT-549 breast) 8.02 µM | GI50 (CAKI-1 renal) 74.3 µM | GI50 (CCRF-CEM leukemia) 7.23 µM | GI50 (COLO 205 colon) 5.88 µM | GI50 (DU-145 prostate) 90.9 µM | GI50 (EKVX NSCLC) 7.76 µM | GI50 (HCC-2998 colon) > 100 µM | GI50 (HCT-116 colon) 5.66 µM | GI50 (HCT-15 colon) 8.98 µM | GI50 (HL-60(TB) leukemia) 9.26 µM | GI50 (HOP-62 NSCLC) 7.7 µM | GI50 (HOP-92 NSCLC) 8.63 µM | GI50 (HS 578T breast) > 100 µM | GI50 (HT29 colon) > 100 µM | GI50 (IGROV1 ovarian) 58.7 µM | GI50 (K-562 leukemia) 4.1 µM | GI50 (KM12 colon) > 100 µM | GI50 (LOX IMVI melanoma) 19.3 µM | GI50 (M14 melanoma) 9.15 µM | GI50 (MALME-3M melanoma) 42.7 µM | GI50 (MCF7 breast) 5.63 µM | GI50 (MDA-MB-231 breast) 48 µM | GI50 (MDA-MB-435) 44.1 µM | GI50 (MOLT-4 leukemia) 3.81 µM | GI50 (NCI-H226 lung) 37.4 µM | GI50 (NCI-H23 lung) > 100 µM | GI50 (NCI-H460 lung) 10.2 µM | GI50 (NCI-H522 lung) 7.21 µM | GI50 (NCI/ADR-RES ovarian) > 100 µM | GI50 (OVCAR-3 ovarian) 32.5 µM | GI50 (OVCAR-4 ovarian) 9.67 µM | GI50 (OVCAR-5 ovarian) > 100 µM | GI50 (OVCAR-8 ovarian) 47 µM | GI50 (PC-3 prostate) 6.64 µM | GI50 (RXF 393 renal) 5.98 µM | GI50 (SF-268 CNS) 14.1 µM | GI50 (SF-295 CNS) 5.75 µM | GI50 (SF-539 CNS) 10.8 µM | GI50 (SK-MEL-2 melanoma) 6.08 µM | GI50 (SK-MEL-28 melanoma) > 100 µM | GI50 (SK-MEL-5 melanoma) 5.88 µM | GI50 (SK-OV-3 ovarian) > 100 µM | GI50 (SNB-19 CNS) 41.8 µM | GI50 (SNB-75 CNS) 3.33 µM | GI50 (SR leukemia) 4.98 µM | GI50 (SW-620 colon) 46.2 µM | GI50 (T-47D breast) 21.2 µM | GI50 (TK-10 renal) 39.9 µM | GI50 (U251 CNS) 7.83 µM | GI50 (UACC-257 melanoma) > 100 µM | GI50 (UACC-62 melanoma) > 100 µM | GI50 (UO-31 renal) 86.6 µM
> 100 µM: TGI (786-0 renal) | TGI (A498 renal) | TGI (A549 NSCLC) | TGI (ACHN renal) | TGI (BT-549 breast) | TGI (CAKI-1 renal) | TGI (CCRF-CEM leukemia) | TGI (COLO 205 colon) | TGI (DU-145 prostate) | TGI (EKVX NSCLC) | TGI (HCC-2998 colon) | TGI (HCT-116 colon) | TGI (HCT-15 colon) | TGI (HL-60(TB) leukemia) | TGI (HOP-62 NSCLC) | TGI (HOP-92 NSCLC) | TGI (HS 578T breast) | TGI (HT29 colon) | TGI (IGROV1 ovarian) | TGI (K-562 leukemia) | TGI (KM12 colon) | TGI (LOX IMVI melanoma) | TGI (M14 melanoma) | TGI (MALME-3M melanoma) | TGI (MCF7 breast) | TGI (MDA-MB-231 breast) | TGI (MDA-MB-435) | TGI (MOLT-4 leukemia) | TGI (NCI-H226 lung) | TGI (NCI-H23 lung) | TGI (NCI-H460 lung) | TGI (NCI-H522 lung) | TGI (NCI/ADR-RES ovarian) | TGI (OVCAR-3 ovarian) | TGI (OVCAR-4 ovarian) | TGI (OVCAR-5 ovarian) | TGI (OVCAR-8 ovarian) | TGI (PC-3 prostate) | TGI (RXF 393 renal) | TGI (SF-268 CNS) | TGI (SF-295 CNS) | TGI (SF-539 CNS) | TGI (SK-MEL-2 melanoma) | TGI (SK-MEL-28 melanoma) | TGI (SK-MEL-5 melanoma) | TGI (SK-OV-3 ovarian) | TGI (SNB-19 CNS) | TGI (SNB-75 CNS) | TGI (SR leukemia) | TGI (SW-620 colon) | TGI (T-47D breast) | TGI (TK-10 renal) | TGI (U251 CNS) | TGI (UACC-257 melanoma) | TGI (UACC-62 melanoma) | TGI (UO-31 renal)
